According to the NIST ThermoML archive (doi:10.1016/j.fluid.2007.06.001):

How the values were obtained:
[1] = excess molar enthalpy (molar enthalpy of mixing); xn = mol fraction of the nth substance listed; details: Liquid
[2] = Liquid

CCCC[n+]1ccn(C)c1.O=S(=O)([N-]S(=O)(=O)C(F)(F)F)C(F)(F)F + CC1CCCCC1
[1], 363.15 K, 101.3 kPa
Details	excess molar enthalpy [kcal/mol]
x2 = 0.1067	0.111
x2 = 0.2014	0.148
x2 = 0.2449	0.143
x2 = 0.286	0.137
x2 = 0.3621	0.123
x2 = 0.4308	0.111
x2 = 0.4932	0.099
x2 = 0.6022	0.0773
x2 = 0.6942	0.0587
x2 = 0.773	0.0439
x2 = 0.872	0.0258

CCCCCC[n+]1ccn(C)c1.O=S(=O)([N-]S(=O)(=O)C(F)(F)F)C(F)(F)F + CC(C)=O
[1], 353.15 K, 101 kPa
Details	excess molar enthalpy [kcal/mol]
x2 = 0.02	-0.0107
x2 = 0.0499	-0.0253
x2 = 0.0999	-0.0512
x2 = 0.1498	-0.0795
x2 = 0.1998	-0.106
x2 = 0.2997	-0.158
x2 = 0.3996	-0.202
x2 = 0.4996	-0.239
x2 = 0.5996	-0.26
x2 = 0.6997	-0.268
x2 = 0.7998	-0.25
x2 = 0.8999	-0.182
x2 = 0.9499	-0.117

CCCC[n+]1ccn(C)c1.O=S(=O)([N-]S(=O)(=O)C(F)(F)F)C(F)(F)F + CC(C)=O
[1], 353.15 K, 101 kPa
Details	excess molar enthalpy [kcal/mol]
x2 = 0.05	-0.031
x2 = 0.0999	-0.0608
x2 = 0.1499	-0.092
x2 = 0.1999	-0.122
x2 = 0.2998	-0.175
x2 = 0.4498	-0.248
x2 = 0.5998	-0.291
x2 = 0.6998	-0.296
x2 = 0.7999	-0.265
x2 = 0.8499	-0.235
x2 = 0.8999	-0.186
x2 = 0.95	-0.118

CCCCCC[n+]1ccn(C)c1.O=S(=O)([N-]S(=O)(=O)C(F)(F)F)C(F)(F)F + CCC(C)=O
[1], 353.15 K, 101 kPa
Details	excess molar enthalpy [kcal/mol]
x2 = 0.02	-0.0125
x2 = 0.05	-0.0296
x2 = 0.1	-0.0578
x2 = 0.15	-0.0902
x2 = 0.2001	-0.12
x2 = 0.3001	-0.17
x2 = 0.4001	-0.215
x2 = 0.5001	-0.25
x2 = 0.6001	-0.274
x2 = 0.7001	-0.278
x2 = 0.8001	-0.255
x2 = 0.9	-0.181
x2 = 0.95	-0.114

CCCC[n+]1ccn(C)c1.O=S(=O)([N-]S(=O)(=O)C(F)(F)F)C(F)(F)F + CCC(C)=O
[1], 353.15 K, 101 kPa
Details	excess molar enthalpy [kcal/mol]
x2 = 0.0508	-0.0292
x2 = 0.1015	-0.0592
x2 = 0.1521	-0.0906
x2 = 0.2026	-0.118
x2 = 0.3035	-0.172
x2 = 0.4541	-0.239
x2 = 0.6039	-0.282
x2 = 0.7034	-0.289
x2 = 0.8026	-0.259
x2 = 0.8521	-0.229
x2 = 0.9015	-0.181
x2 = 0.9508	-0.112

CCCCCC[n+]1ccn(C)c1.O=S(=O)([N-]S(=O)(=O)C(F)(F)F)C(F)(F)F + CCCCCC
[1], 363.15 K, 101 kPa
Details	excess molar enthalpy [kcal/mol]
x2 = 0.02	0.0124
x2 = 0.0501	0.035
x2 = 0.1002	0.073
x2 = 0.1503	0.104
x2 = 0.2003	0.123
x2 = 0.3003	0.126
x2 = 0.4004	0.107
x2 = 0.5004	0.0878
x2 = 0.6004	0.0711
x2 = 0.7003	0.0511
x2 = 0.8002	0.0328
x2 = 0.9001	0.0157
x2 = 0.9501	0.00801

CCCC[n+]1ccn(C)c1.O=S(=O)([N-]S(=O)(=O)C(F)(F)F)C(F)(F)F + CCCCCC
[1], 363.15 K, 101.3 kPa
Details	excess molar enthalpy [kcal/mol]
x2 = 0.02	0.0134
x2 = 0.0501	0.0353
x2 = 0.1002	0.0689
x2 = 0.1503	0.0949
x2 = 0.2003	0.109
x2 = 0.3004	0.0941
x2 = 0.5004	0.0662
x2 = 0.7004	0.038
x2 = 0.9002	0.0116

CCn1cc[n+](C)c1.O=S(=O)([N-]S(=O)(=O)C(F)(F)F)C(F)(F)F + CCCCCC
[1], 353.15 K, 101.3 kPa
Details	excess molar enthalpy [kcal/mol]
x2 = 0.0239	0.0297
x2 = 0.0472	0.0535
x2 = 0.07	0.066
x2 = 0.0923	0.0787
x2 = 0.1354	0.0756
x2 = 0.2162	0.0688
x2 = 0.3916	0.0521
x2 = 0.6588	0.0288
x2 = 0.8528	0.0125

CCn1cc[n+](C)c1.O=S(=O)([N-]S(=O)(=O)C(F)(F)F)C(F)(F)F + CCCO
[1], 323.15 K, 101.3 kPa
Details	excess molar enthalpy [kcal/mol]
x2 = 0.0418	0.0767
x2 = 0.0812	0.15
x2 = 0.1536	0.27
x2 = 0.277	0.451
x2 = 0.4629	0.626
x2 = 0.6741	0.623
x2 = 0.8082	0.488
x2 = 0.9602	0.151

CCCCCC[n+]1ccn(C)c1.O=S(=O)([N-]S(=O)(=O)C(F)(F)F)C(F)(F)F + CCO
[1], 353.15 K, 101 kPa
Details	excess molar enthalpy [kcal/mol]
x2 = 0.0506	0.0647
x2 = 0.1012	0.132
x2 = 0.1517	0.202
x2 = 0.2022	0.269
x2 = 0.4534	0.51
x2 = 0.6033	0.551
x2 = 0.9012	0.257
x2 = 0.9506	0.138

CCn1cc[n+](C)c1.O=S(=O)([N-]S(=O)(=O)C(F)(F)F)C(F)(F)F + CCO
[1], 323.15 K, 101.3 kPa
Details	excess molar enthalpy [kcal/mol]
x2 = 0.0529	0.0909
x2 = 0.1017	0.163
x2 = 0.1885	0.297
x2 = 0.3291	0.463
x2 = 0.5246	0.586
x2 = 0.7259	0.525
x2 = 0.8436	0.384
x2 = 0.9687	0.105

CCCCCC[n+]1ccn(C)c1.O=S(=O)([N-]S(=O)(=O)C(F)(F)F)C(F)(F)F + Cc1ccccc1
[1], 363.15 K, 101 kPa
Details	excess molar enthalpy [kcal/mol]
x2 = 0.0501	-0.0218
x2 = 0.1001	-0.0441
x2 = 0.1501	-0.0645
x2 = 0.2002	-0.0866
x2 = 0.3002	-0.125
x2 = 0.4503	-0.169
x2 = 0.6003	-0.183
x2 = 0.7002	-0.164
x2 = 0.8002	-0.116
x2 = 0.8501	-0.0868
x2 = 0.9001	-0.0571
x2 = 0.9501	-0.0288

CCCC[n+]1ccn(C)c1.O=S(=O)([N-]S(=O)(=O)C(F)(F)F)C(F)(F)F + Cc1ccccc1
[1], 363.15 K, 101 kPa
Details	excess molar enthalpy [kcal/mol]
x2 = 0.0653	-0.023
x2 = 0.1255	-0.0435
x2 = 0.1811	-0.0624
x2 = 0.2325	-0.0772
x2 = 0.2803	-0.0908
x2 = 0.3249	-0.101
x2 = 0.4054	-0.122
x2 = 0.4761	-0.133
x2 = 0.5389	-0.139
x2 = 0.6451	-0.135
x2 = 0.7317	-0.108
x2 = 0.8035	-0.0824
x2 = 0.8911	-0.0447
x2 = 0.9608	-0.0171

CCCCCC[n+]1ccn(C)c1.O=S(=O)([N-]S(=O)(=O)C(F)(F)F)C(F)(F)F + c1ccccc1
[1], 363.15 K, 101 kPa
Details	excess molar enthalpy [kcal/mol]
x2 = 0.0854	-0.0378
x2 = 0.1608	-0.0698
x2 = 0.2279	-0.0993
x2 = 0.288	-0.12
x2 = 0.3421	-0.142
x2 = 0.3912	-0.163
x2 = 0.4765	-0.191
x2 = 0.5482	-0.21
x2 = 0.6094	-0.214
x2 = 0.7082	-0.206
x2 = 0.7845	-0.183
x2 = 0.8452	-0.138
x2 = 0.9161	-0.0683
x2 = 0.9704	-0.0212

CCCC[n+]1ccn(C)c1.O=S(=O)([N-]S(=O)(=O)C(F)(F)F)C(F)(F)F + c1ccccc1
[1], 101.3 kPa
Details	excess molar enthalpy [kcal/mol]
363.15 K, x2 = 0.0498	-0.0235
363.15 K, x2 = 0.0997	-0.0451
363.15 K, x2 = 0.1495	-0.0678
363.15 K, x2 = 0.1994	-0.0875
363.15 K, x2 = 0.2992	-0.127
363.15 K, x2 = 0.4491	-0.176
363.15 K, x2 = 0.5991	-0.206
363.15 K, x2 = 0.6992	-0.198
363.15 K, x2 = 0.7994	-0.147
363.15 K, x2 = 0.8495	-0.112
363.15 K, x2 = 0.8997	-0.0716
363.15 K, x2 = 0.9498	-0.0353
413.15 K, x2 = 0.1462	-0.0688
413.15 K, x2 = 0.2087	-0.0954
413.15 K, x2 = 0.2654	-0.12
413.15 K, x2 = 0.3172	-0.142
413.15 K, x2 = 0.3647	-0.166
413.15 K, x2 = 0.4485	-0.196
413.15 K, x2 = 0.5202	-0.212
413.15 K, x2 = 0.5823	-0.22
413.15 K, x2 = 0.6844	-0.217
413.15 K, x2 = 0.7648	-0.186
413.15 K, x2 = 0.8299	-0.142
413.15 K, x2 = 0.907	-0.0792
413.15 K, x2 = 0.967	-0.0313

CCCCCCCCC [nonane]
Details	vapor or sublimation pressure [kPa]
[2], 353.15 K	9.65

C=CCCCCCC [oct-1-ene]
Details	vapor or sublimation pressure [kPa]
[2], 363.15 K	38.51

C=CCCCCCC [oct-1-ene] + CCCCCC[n+]1ccn(C)c1.O=S(=O)([N-]S(=O)(=O)C(F)(F)F)C(F)(F)F
[1], 413.15 K, 101 kPa
Details	excess molar enthalpy [kcal/mol]
x1 = 0.0504	0.0404
x1 = 0.0982	0.0729
x1 = 0.1437	0.102
x1 = 0.1869	0.131
x1 = 0.2281	0.142
x1 = 0.2675	0.141
x1 = 0.3409	0.13
x1 = 0.4082	0.116
x1 = 0.47	0.103
x1 = 0.5797	0.0815
x1 = 0.6742	0.0617
x1 = 0.7563	0.0472
x1 = 0.8613	0.0272

CCCCCCCC [octane]
Details	vapor or sublimation pressure [kPa]
[2], 353.15 K	23.16

CCC(=O)CC [pentan-3-one] + CCCCCC[n+]1ccn(C)c1.O=S(=O)([N-]S(=O)(=O)C(F)(F)F)C(F)(F)F
[1], 353.15 K, 101 kPa
Details	excess molar enthalpy [kcal/mol]
x1 = 0.0503	-0.0247
x1 = 0.1005	-0.0527
x1 = 0.1507	-0.0794
x1 = 0.2009	-0.107
x1 = 0.3011	-0.156
x1 = 0.4013	-0.198
x1 = 0.5013	-0.24
x1 = 0.6013	-0.266
x1 = 0.7011	-0.276
x1 = 0.8009	-0.249
x1 = 0.9005	-0.177
x1 = 0.9503	-0.109
